The structures appear in SMILES notation.

What is called IC50 is the concentration needed to halve the response being measured.

For the assay, the target named is Short transient receptor potential channel 6 (Mus musculus) (UniProt Q61143). The assay can be described thus: TRPC6 inhibitor potency, dose response, cell-based, mouse TRPC6, HEK293, membrane potential (AID 2696). To be noted: TRPC6-expressing HEK293 cells, membrane potential dye fluorescence, acetylcholine-stimulated.
Chain of Short transient receptor potential channel 6 (Mus musculus) (Q61143 whole entry, looked up): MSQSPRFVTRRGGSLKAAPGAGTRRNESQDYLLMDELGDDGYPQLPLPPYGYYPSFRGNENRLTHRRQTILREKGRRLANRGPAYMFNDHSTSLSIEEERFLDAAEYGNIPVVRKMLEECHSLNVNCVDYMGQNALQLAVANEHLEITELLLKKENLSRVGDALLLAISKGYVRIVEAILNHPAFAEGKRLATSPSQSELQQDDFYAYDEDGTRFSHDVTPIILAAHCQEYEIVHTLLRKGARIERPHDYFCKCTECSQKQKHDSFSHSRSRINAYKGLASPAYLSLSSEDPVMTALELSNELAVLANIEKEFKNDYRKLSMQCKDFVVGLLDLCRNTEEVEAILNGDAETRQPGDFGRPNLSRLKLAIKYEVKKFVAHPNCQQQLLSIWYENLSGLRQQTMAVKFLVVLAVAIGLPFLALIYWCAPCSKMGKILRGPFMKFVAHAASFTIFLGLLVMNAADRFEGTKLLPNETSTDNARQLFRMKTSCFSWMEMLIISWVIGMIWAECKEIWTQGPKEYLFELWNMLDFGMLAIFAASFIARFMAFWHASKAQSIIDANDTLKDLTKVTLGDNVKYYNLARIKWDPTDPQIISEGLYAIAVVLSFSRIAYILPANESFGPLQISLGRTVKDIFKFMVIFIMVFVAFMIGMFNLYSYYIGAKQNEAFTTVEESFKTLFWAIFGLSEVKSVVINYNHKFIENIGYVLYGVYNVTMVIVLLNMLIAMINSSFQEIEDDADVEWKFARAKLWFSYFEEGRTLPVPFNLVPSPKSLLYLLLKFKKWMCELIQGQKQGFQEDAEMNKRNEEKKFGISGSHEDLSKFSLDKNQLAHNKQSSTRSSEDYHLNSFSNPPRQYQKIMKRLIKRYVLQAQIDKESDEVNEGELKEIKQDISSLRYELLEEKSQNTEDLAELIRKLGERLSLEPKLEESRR
For `C#CC[N+]1(C)[C@@H]2CC(OC(=O)C(CO)c3ccccc3)C[C@H]1C(O)C2` (some centres undefined), the IC50 is 3.55 µM.

On to `OC(C#CCN1CCCCCC1)(c1ccccc1)c1cccnc1` (centres undefined), for which the IC50 was 39.8 µM. Under `COC(=O)c1ccc(NC2(C#N)C(=O)Nc3ccccc32)cc1` (centres undefined) stands 50.1 µM.

With `CCN(CC)c1ccc2cc(C(N)=O)/c(=N\NC(=O)c3ccncc3)oc2c1`, the IC50 was 50.1 µM. With `CC[N+]1(C)CCC(=C2c3ccccc3CC(=O)c3sccc32)CC1` (centres undefined), the IC50 was 12.6 µM.

`CC1CCCN1CC#CC(O)(c1ccccc1)c1ccccc1` (centres undefined): the IC50 was 11.2 µM. On to `O=C(NNS(=O)(=O)c1ccc2ccccc2c1)C1CCN(Cc2ccccc2)CC1`, for which the IC50 is 1.41 µM. Then `CN(CC#CC(O)(c1ccccc1)c1ccccc1)C(C)(C)C`, with 12.6 µM. Under `Nc1ccc(C(=O)OCc2nc3ccccc3s2)cc1` stands 79.4 µM; under `Cc1c(C(=O)OCCN2CCCCC2)oc2ccccc12`, 25.1 µM.

Consider `COc1ccc2ccccc2c1CNCCc1ccccc1`, for which the IC50 was 50.1 µM. Consider `Nc1nc(Nc2cccc(F)c2)nc2ccccc12`, for which the IC50 was 39.8 µM. For the compound `O=C(NC(Nc1nc2ccc([N+](=O)[O-])cc2s1)(C(F)(F)F)C(F)(F)F)c1ccccc1`, the IC50 was 8.91 µM. Consider `CCOCCCNC(=S)N1CCCN(c2nc3cc(C)ccc3cc2C#N)CC1`, for which the IC50 was 44.7 µM. Then `OC(CCN1CCCC1)(c1ccccc1)C1CCCCC1` (centres undefined), with 4.47 µM; and `CCC(C)N(CCNC(=O)CC1Oc2ccc(C)cc2NC1=O)C1CCCCC1` (centres undefined), with 15.8 µM. Under `Cn1c(=O)[nH]c(=O)c2c1nc(N1CCCCCC1)n2CCN1CCCCCC1` stands 39.8 µM; under `Cc1ccc(SC(=O)c2c([N+](=O)[O-])c(C)nn2C)cc1`, 35.5 µM; under `Cc1cc(-n2cccn2)ccc1CN1CCN(C2CCCC2)C(CCO)C1` (centres undefined), 0.5 µM. `Cc1ccc(OCCCCCCN2CCNCC2)c(Br)c1`: the IC50 is 79.4 µM. Consider `Cn1c(=O)c(C#N)c(-c2ccc(F)cc2)c2cc(C(=O)c3cc(Cl)cc(Cl)c3O)cnc21`, for which the IC50 was 44.7 µM. Then `CN1CCC(OC(=O)C2c3ccccc3Oc3ccccc32)CC1`, with 0.71 µM; and `O=C(NC(Nc1ncc(S(=O)(=O)c2ccc([N+](=O)[O-])cc2)s1)(C(F)(F)F)C(F)(F)F)c1ccc(Cl)cc1`, with 44.7 µM.

On to `CCOC(=O)c1[nH]c2ccc(F)cc2c1NC(=O)CN1CCN(C/C=C/c2ccccc2)CC1`, for which the IC50 was 31.6 µM.

Regarding `N#Cc1c(N2CCNCC2)nc(-c2ccco2)c2c1CCCC2`, the IC50 was 44.7 µM. In the case of `C[n+]1ccc(/C=N/Nc2nc(Cl)c(C#N)c(Cl)c2Cl)cc1`, the IC50 was 39.8 µM. Then `OC(C#CCN1CCCCC1)(c1ccccc1)c1ccccc1`, with 1.12 µM; and `Cc1cccc(NS(=O)(=O)c2cccc(C(=O)N3CCN(c4ccccn4)CC3)c2)c1`, with 50.1 µM. Consider `N=c1sccn1CC(=O)Nc1cc(Cl)ccc1Oc1ccccc1`, for which the IC50 is 44.7 µM. On to `CN(C)CCOc1nc(-c2ccccc2)nc2c1oc1ccccc12`, for which the 50% inhibitory concentration (IC50) was 70.8 µM. Then `CC(C)C(O)(C#CCN1CCCCC1)c1ccccc1` (centres undefined), with 11.2 µM. As to `CN(C)CCOC(=O)C1(c2ccccc2)CCCC1`, the half-maximal inhibitory concentration (IC50) is 44.7 µM. With `CCN(CC)CCCOC(=O)C1(c2ccccc2)CCCC1`, the IC50 was 11.2 µM.

As for `Cc1cccc2sc(N(CCCN(C)C)C(=O)c3ccc(Cl)s3)nc12`, the IC50 was 70.8 µM.

As for `CC(C)N1CCC2(CC1)N=C(c1ccc3c(c1)OCO3)CC(c1cc(Cl)ccc1O)N2` (centres undefined), the IC50 is 70.8 µM. `O=C(OCCN1CCCCC1)C1(c2ccccc2)CCCC1`: the half-inhibitory concentration (IC50) was 8.91 µM.

Regarding `O=C(CNCCC1=CCCCC1)Nc1ccc(N2CCCCCC2)cc1`, the IC50 is 70.8 µM. In the case of `CCCc1cc(-c2[nH]ncc2-c2ccc3c(c2)OCCCO3)c(O)cc1O`, the IC50 was 50.1 µM. Take `CCCC[n+]1ccc(-c2nc3ccc([N+](=O)[O-])cc3[nH]2)cc1`: the half-inhibitory concentration (IC50) is 56.2 µM. As to `NCCCC(=O)N1c2ccccc2Sc2ccccc21`, the IC50 was 44.7 µM. Under `Cc1nnc(-c2ccccc2)c(=O)n1/N=C/c1c(O)ccc2ccccc12` stands 79.4 µM; under `Nc1cccc2nc3ccccc3cc12`, 50.1 µM; under `CCN(CC)CCSc1nnc2c3ccccc3n(Cc3ccccc3)c2n1`, 44.7 µM.

In the case of `C[N+]1(C)CCC(OC(=O)C(c2ccccc2)c2ccccc2)CC1`, the IC50 is 0.28 µM.

(Values after PubChem BioAssay AID2696 (Johns Hopkins Ion Channel Center, 2010).)
